Assay results published in patent US20120214862A1, “MODULATION OF FACTOR 7 EXPRESSION” (ISIS Pharmaceuticals, Inc., priority 2009, published 2012).
In the oligonucleotide strings, read from the 5' end, every base follows the letter of its sugar. An asterisk marks phosphorothioate; unmarked linkages are phosphodiester. Other units and linkages are bracketed, terminal groups are in braces. A string of capitals states the bases alone. e = 2'-O-(2-methoxyethyl) (MOE); [5mC] = 5-methylcytosine; d = 2'-deoxy (DNA)

Legend:
human Factor 7 mRNA [1] = assay: Antisense inhibition of human Factor 7 mRNA in HepB3 cells, lipofectin, 50 nM, real-time RT-PCR; assay type: cell-based; details: HepB3 cells; for % Inhibition (human Factor 7 mRNA): Example 1, 50 nM, ~24 h, relative to untreated control cells
In short: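 Cells plated at 4,000 per well were transfected and harvested after approximately 24 hours of treatment. Transcript levels, measured with primer probe set RTS 2927, were normalised to total RNA by RIBOGREEN®. Values are percent inhibition relative to untreated control cells.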

human Factor 7 mRNA [2] = assay: Dose-dependent antisense inhibition of human Factor 7 in HepB3 cells, transfection with lipofectin; assay type: cell-based; details: for percent inhibition of Factor 7 mRNA, relative to untreated control cells: lipofectin, HepB3 cells, 16 hours; for percent inhibition of Factor 7 mRNA, 3.125 nM / percent inhibition of Factor 7 mRNA, 6.25 nM / percent inhibition of Factor 7 mRNA, 12.5 nM / percent inhibition of Factor 7 mRNA, 25.0 nM / percent inhibition of Factor 7 mRNA, 50.0 nM / percent inhibition of Factor 7 mRNA, 100.0 nM: HepB3, lipofectin, ~16 h
In short: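 HepB3 cells (4,000/well) lipofectin-transfected with antisense oligonucleotide at 3.125 or 6.25 up to 100 nM for ~16 h. Factor 7 mRNA measured by real-time RT-PCR with primer probe set RTS 2927, adjusted to RIBOGREEN total RNA; expressed as percent inhibition versus untreated control cells.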

[3] = lipofectin, 50 nM antisense oligonucleotide, approximately 24 hours, primer probe set RTS 2927, relative to untreated control

Substance	% Inhibition (human Factor 7 mRNA) (human Factor 7 mRNA [1]; lipofectin) [%]	% Inhibition of human Factor 7 mRNA levels (human Factor 7 mRNA [1]; [3]) [%]	% Inhibition of human Factor 7 mRNA levels (human Factor 7 mRNA [1]; gapmers targeted to nucleobases 15188 to 15211 of SEQ ID NO: 1 (Table 13)) [%]	percent inhibition of Factor 7 mRNA, relative to untreated control cells (human Factor 7 mRNA [2]; 3.125 nM) [%]	percent inhibition of Factor 7 mRNA, relative to untreated control cells (human Factor 7 mRNA [2]; 12.5 nM) [%]	percent inhibition of Factor 7 mRNA, relative to untreated control cells (human Factor 7 mRNA [2]; 25 nM) [%]	percent inhibition of Factor 7 mRNA, relative to untreated control cells (human Factor 7 mRNA [2]; 50 nM) [%]	percent inhibition of Factor 7 mRNA, relative to untreated control cells (human Factor 7 mRNA [2]; 100 nM) [%]	percent inhibition of Factor 7 mRNA, 3.125 nM (human Factor 7 mRNA [2]; Example 2, 3.125 nM) [%]	percent inhibition of Factor 7 mRNA, 6.25 nM (human Factor 7 mRNA [2]; Example 2) [%]	percent inhibition of Factor 7 mRNA, 12.5 nM (human Factor 7 mRNA [2]; Example 2, 12.5 nM) [%]	percent inhibition of Factor 7 mRNA, 25.0 nM (human Factor 7 mRNA [2]; Example 2) [%]	percent inhibition of Factor 7 mRNA, 50.0 nM (human Factor 7 mRNA [2]; Example 2) [%]	percent inhibition of Factor 7 mRNA, 100.0 nM (human Factor 7 mRNA [2]; Example 2) [%]	percent inhibition of Factor 7 mRNA, 6.25 nM (human Factor 7 mRNA [2]; Example 5) [%]	percent inhibition of Factor 7 mRNA, 12.5 nM (human Factor 7 mRNA [2]; Example 5, 12.5 nM) [%]	percent inhibition of Factor 7 mRNA, 25.0 nM (human Factor 7 mRNA [2]; Example 5) [%]	percent inhibition of Factor 7 mRNA, 50.0 nM (human Factor 7 mRNA [2]; Example 5) [%]	percent inhibition of Factor 7 mRNA, 100.0 nM (human Factor 7 mRNA [2]; Example 5) [%]	percent inhibition of Factor 7 mRNA, relative to untreated control cells (human Factor 7 mRNA [2]) [%]
407935 (antisense eA*eT*eG*e[5mC]*eA*dT*dG*dG*dT*dG*dA*dT*dG*d[5mC]*dT*eT*e[5mC]*eT*eG*eA) [compound 407935]	94	72	79	19	58	70	85	87	57	76	78	89	90	89	38	53	70	82	86	39
407939 (antisense eT*eG*e[5mC]*eA*eG*d[5mC]*d[5mC]*d[5mC]*dG*dG*d[5mC]*dA*d[5mC]*d[5mC]*d[5mC]*eA*eG*e[5mC]*eG*eA) [compound 407939]	93	76	–	17	57	75	80	83	62	79	83	91	92	92	37	57	77	84	87	35
